Laboratory results from US20230263817A1, “HIGH DOSE NICOTINAMIDE ADENINE DINUCLEOTIDE (NAD) PRECURSOR REGIMENS FOR REDUCTION OF INFLAMMATION IN HUMAN PATIENTS WITH PREEXISTING INFLAMMATION” (University of Washington, priority 2021, published 2023).

How the values were obtained:
Format in all cases: in vivo, human
[1] = Whole blood NAD+ in Stage D HF patients on oral NR for 5-9 days; settings: oral NR up to 1000 mg twice a day, post vs pre
Method: (§1) For experiments associated with the oral NR administration (FIGS. 12C-12F), 5 hospitalized Stage D HF patients undergoing advanced heart failure therapy evaluations were put on escalating doses of NR (250 mg twice a day for Day 1, 500 mg twice a day for Day 2, and 1000 mg twice a day from Day 3 on) for 5-9 days. Fasting blood samples were obtained for PBMC isolation at baseline and post-NR administration. Subject 5 was withdrawn due to a change in clinical course deemed to be independent from NR administration.
Whole bloodNAD^+ assays. These were performed as previously described (Airhart S E, et al., PLoS One. 2017, 12(12):e0186459). Briefly, 50 μL of thawed blood samples were added to tubes containing 1 μg BMP as the internal standard and immediately followed by 300 μL of 4% trichloroacetic acid to precipitate proteins. Calibration standards were similarly prepared except that the matrix was 30 mg/mL BSA spiked with NAD^+ and NMN that had been dissolved in methanol. After protein precipitation and high-speed centrifugation, the supernatants were loaded onto Costar Spin-X 0.22 μm spin filters and subject to high speed centrifugation again. The eluates were injected onto an Agilent 1100 series high performance liquid chromatograph coupled to an Agilent G1956B single-quadrupole mass spectrometer. The mass spectrometer was operated in electrospray ionization mode with positive polarity.

[2] = tested on: PBMC of Stage D HF subjects; experiment: PBMC basal and maximal OCR of Stage D HF patients pre- and post-oral NR; settings: oral NR 5-9 days, post vs pre
Method: For experiments associated with the oral NR administration (FIGS. 12C-12F), 5 hospitalized Stage D HF patients undergoing advanced heart failure therapy evaluations were put on escalating doses of NR (250 mg twice a day for Day 1, 500 mg twice a day for Day 2, and 1000 mg twice a day from Day 3 on) for 5-9 days. Fasting blood samples were obtained for PBMC isolation at baseline and post-NR administration. Subject 5 was withdrawn due to a change in clinical course deemed to be independent from NR administration. PBMC and Monocyte isolation. 30-60 ml of fasting blood was collected into EDTA-containing Vacutainers (BD Mfr #364606). Blood then was diluted (1:1) with RPMI medium (Corning; Cat #17-105-CV) and applied to Histopaque gradient medium (Sigma-Aldrich; Cat #10771) using SepMate-50 (STEMCELL Technologies), and centrifuged at 1200 g for 10 minutes. Top layer contained the enriched peripheral blood mononuclear cells (PBMCs) which were collected and followed by centrifugation at 300 g for 10 minutes. The pellet was resuspended with ACK lysis buffer (Gibco; Cat. A1049201) and incubated at room temperature for 5 minutes to remove residual red blood cells. […] When available, the remaining cells were used for cytokine mRNA quantitative PCR and in vitro assays. […] Oxygen consumption rate (OCR) of freshly isolated PBMCs was assessed using a Seahorse XFe24 analyzer (Agilent Technologies). […]

[3] = Adverse effects of oral NR in Stage D HF patients; settings: oral NR 5-9 days, 5 participants
Method: as §1

[4] = Randomized trial of NR in HFrEF: exploratory endpoints (6MWD, MLHFQ, echocardiography); settings: Week 12 vs baseline; study not powered
Method: Peripheral Blood Mononuclear Cell (PBMC) Mitochondrial Function. PBMCs were isolated from freshly-collected whole blood by centrifugation in Sepmate™-50 PBMC isolation tubes (STEMCELL Technologies, Vancouver, BC, Canada; Cat. 85450). Isolated PBMCs were resuspended in Seahorse XF® medium (Agilent, Cat. 102353-100) and then plated (10^6 cells/well) onto Seahorse® (Agilent) 24-well plates. PBMC mitochondrial respiratory function was assessed by measuring the oxygen consumption rate (OCR) at baseline and maximal stimulated conditions as described in Zhou B, et al. (J Clin Invest. 2020, 130:6054-6063 (Experimental Example 1)). Exploratory Endpoints. The following endpoints were considered exploratory, as the Study was underpowered to detect differences.
Six minute walk distance (6MWD). Any potential “training” effect (Laboratories ATSCoPSfCPF. ATS statement: guidelines for the six-minute walk test. Am J Respir Crit Care Med. 2002, 166:111-7) for 6MWD results was mitigated by performing a “training” test at the Screening Visit, while the second test, performed at the Randomization Visit was considered the Baseline test.
Echocardiography. Serial echocardiograms were performed using a standardized data collection protocol determined using the TOMTEC Arena Image-Com (TOMTEC Imaging Systems, Unterschleissheim, Germany). All echocardiograms were interpreted by a single observer, blinded to participant clinical data, randomized treatment assignment and echocardiogram temporal sequence. For evaluation of left ventricular systolic function by 2-dimensional (2-D), transthoracic echocardiography, 28 study pairs (NR=18, placebo=10) had evaluable data. For evaluation of left ventricular diastolic function by […] (E/e′), 24 study pairs (NR=17, placebo=7) had evaluable data.
Minnesota Living with Heart Failure Questionnaire (MLHFQ). The MLHFQ was administered to Study participants at the Screening and Randomization visits, as well as at Study visits at Weeks 2, 3, 4, 8 and 12.

With `NC(=O)c1ccc[n+]([C@@H]2O[C@H](CO)[C@@H](O)[C@H]2O)c1` [NR, nicotinamide riboside] the “whole blood NAD+ levels” value [1] was “increases”, the “PBMCs basal OCR” value [2] was “consistent enhancement” and the “PBMCs maximal OCR” value [2] was “consistent enhancement”. The “adverse effect associated with NR” value [3] was “No adverse effect”, the “functional capacity, 6-minute walk test distance, NR vs placebo” value [4] was “No on-trial differences between groups” and the “left ventricular diastolic function (E/e′), NR vs placebo” value [4] was “No on-trial differences between groups”. For the same compound, the “left ventricular systolic function, 2D-LVEF, NR vs placebo” value [4] was “No on-trial differences between groups” and the “quality of life, MLHFQ score, NR vs placebo” value [4] was “No on-trial differences between groups”.
